Earlier results on 2 compounds are cited in article PMC11064828 (Journal of Nuclear Medicine, 2024).

Series [1] relates to CAIX. To be noted: phase 1 study of advanced solid tumors. The source says: As a direct transcriptional target of hypoxia-inducible factor 1α, CAIX is overexpressed in several hard-to-treat tumors, including ccRCC, CRC, breast cancer, and PDAC ([2],[9]–[11]), making it a promising therapeutic target. However, to date, the transition of CAIX-targeting therapies to clinical settings has been poor ([7],[13]). Several small-molecule inhibitors of CAs, including CAIX, have been developed ([7],[13]).

Series [2] has as its system CAIX. The conditions noted are these: 2 clinical trials of metastatic ccRCC. The source says: As a direct transcriptional target of hypoxia-inducible factor 1α, CAIX is overexpressed in several hard-to-treat tumors, including ccRCC, CRC, breast cancer, and PDAC ([2],[9]–[11]), making it a promising therapeutic target. However, to date, the transition of CAIX-targeting therapies to clinical settings has been poor ([7],[13]).

In the case of `NS(=O)(=O)c1ccc(NC(=O)Nc2ccc(F)cc2)cc1` [SLC-0111], in the series on CAIX [1], the objective responses entry is recorded as “no objective responses” and the tolerability result was “well tolerated”.

Regarding “G250 to the β-emitter [^177Lu]Lu: anti-CAIX monoclonal antibody G250 conjugated to the β-emitter [^177Lu]Lu”, in the series on CAIX [2], the dose-limiting toxicity result was “dose-limiting myelotoxicity”.
